Laboratory results as given in article PMC7407272, “Induction of Lysosome Membrane Permeabilization as a Therapeutic Strategy to Target Pancreatic Cancer Stem Cells” (Cancers, 2020).

Legend:
PDAC4 3D spheres = test: Viability curves on PDAC4 3D spheres; format: cell-based, human; conditions: Homo sapiens, 30 h
From the text: The PDAC patient-derived xenograft (PDX) Panc354 (referred to hereafter as PDAC3) was obtained from Dr. Manuel Hidalgo under a Material Transfer Agreement with the Spanish National Cancer Centre (CNIO), Madrid, Spain (Reference no. I409181220BSMH). PDAC1, PDAC2 and PDAC4 PDXs were established from primary patient resected tumors. Samples were provided by the BioBank Hospital Ramón y Cajal-IRYCIS (PT13/0010/0002), integrated in the Spanish National Biobanks Network and they were processed following standard operating procedures with the appropriate approval of the Ethical and Scientific Committees (Control no. No. Control: DE-BIOB-73 AC65, RG.BIOB-96 REV, and CI-BIOB-08-10-01 rev), with informed consent and according to Declaration of Helsinki principles. Primary patient tumors were subcutaneously implanted in immunocompromised female 6- to 8-week-old NU-Foxn1nu nude mice (Envigo, Barcelona, Spain) and subsequently passage in vivo to establish PDX PDAC1, PDAC2 and PDAC4. Primary PDX-derived in vitro cultures were established as previously detailed. […]
Pancreatic CSC spheres were generated as previously described in ultra-low attachment plates (Corning) using CSC media: serum-free DMEM/F12 medium (1:1; #21331-020; Gibco, Waltham, MA, USA), supplemented with Pen/Strep (1:100; #1500-063; Gibco, Waltham, MA, USA), Fungizone (1:250; #15290-018; Gibco), L-Glutamine (1:100; #25030-024; Gibco, Waltham, MA, USA), B-27 (1:50; #17504-044; Gibco, Waltham, MA, USA) and basic fibroblast growth factor (FGF-b) (1:5000; Gibco, Waltham, MA, USA). […] To quantify spheres of > 40 μm, 1 mL of sample volume was analyzed with a CASY® Cell Counter (Roche Applied Sciences, Mannheim, Germany). […]

re-plated PDAC2 spheres = test: Acridine orange lysosomal integrity assay; format: cell-based, human
Experimental: Cells were analyzed with a 4-laser Attune NxT Acoustic Cytometer (ThermoFisher Scientific). […] Autofluorescent cells were excited with blue laser 488nm and selected as the intersection with the filters 530/40 and 580/30 as previously described. For lysosomes quantification, Acridine Orange (AO) (A1301, Thermo Fisher Scientific, Waltham, MA, USA) or Lysotracker Deep Red (DR) (L12492, Molecular probes, Life Technologies, Waltham, MA, USA) were used. […] Bafilomycin A1 (100 nM, Calbiochem, San Diego, CA, USA) was included as a positive control for lysosome disruption. For Annexin V staining, floating and attached cells were pooled and resuspended in 1× AnnexinV staining buffer containing AnnexinV-APC diluted 1:20 (Biotium, Freemont, CA, USA) and incubated for 20 min at room temperature prior to flow cytometric analysis. For all assays, DAPI was used to mark and exclude dead cells, and data were analyzed using the software FlowJo v9.3 (Tree Star Inc., Ashland, OR, USA).
Re-plated spheres were loaded with 1 µg/mL acridine orange (A1301, Thermo Fisher Scientific) for 15 min then washed 3 times with PBS. […]

ABL1(F317L)-P = molecular target: T1, ABL1(F317L)-P (Homo sapiens, UniProt P00519, F317L); test: KINOMEscan; format: binding; conditions: read-out: % Ctrl
T1 construct: purchased DiscoveRx KINOMEscan

FLT3(D835V) = molecular target: T2, FLT3(D835V) (Homo sapiens, UniProt P36888, D835V); test: KINOMEscan; format: binding; conditions: read-out: % Ctrl
T2 construct: purchased DiscoveRx KINOMEscan

BRK = molecular target: T3, BRK (Homo sapiens, UniProt Q13882); test: KINOMEscan; format: binding; conditions: read-out: % Ctrl
T3 construct: purchased DiscoveRx KINOMEscan

ITK = molecular target: T4, ITK (Homo sapiens, UniProt Q08881); test: KINOMEscan; format: binding; conditions: read-out: % Ctrl
T4 construct: purchased DiscoveRx KINOMEscan

PRKD1 = molecular target: T5, PRKD1 (Homo sapiens, UniProt Q15139); test: KINOMEscan; format: binding; conditions: read-out: % Ctrl
T5 construct: purchased DiscoveRx KINOMEscan

SgK110 = molecular target: T6, SgK110 (Homo sapiens, UniProt P0C264); test: KINOMEscan; format: binding; conditions: read-out: % Ctrl
T6 construct: purchased DiscoveRx KINOMEscan

MEK6 = molecular target: T7, MEK6 (Homo sapiens, UniProt P52564); test: KINOMEscan; format: binding; conditions: read-out: % Ctrl
T7 construct: purchased DiscoveRx KINOMEscan

STK39 = molecular target: T8, STK39 (Homo sapiens, UniProt Q9UEW8); test: KINOMEscan; format: binding; conditions: read-out: % Ctrl
T8 construct: purchased DiscoveRx KINOMEscan

TRPM6 = molecular target: T9, TRPM6 (Homo sapiens, UniProt Q9BX84); test: KINOMEscan; format: binding; conditions: read-out: % Ctrl
T9 construct: purchased DiscoveRx KINOMEscan

TXK = molecular target: T10, TXK (Homo sapiens, UniProt P42681); test: KINOMEscan; format: binding; conditions: read-out: % Ctrl
T10 construct: purchased DiscoveRx KINOMEscan

ULK2 = molecular target: T11, ULK2 (Homo sapiens, UniProt Q8IYT8); test: KINOMEscan; format: binding; conditions: read-out: % Ctrl
T11 construct: purchased DiscoveRx KINOMEscan
T11 sequence (Q8IYT8 whole entry): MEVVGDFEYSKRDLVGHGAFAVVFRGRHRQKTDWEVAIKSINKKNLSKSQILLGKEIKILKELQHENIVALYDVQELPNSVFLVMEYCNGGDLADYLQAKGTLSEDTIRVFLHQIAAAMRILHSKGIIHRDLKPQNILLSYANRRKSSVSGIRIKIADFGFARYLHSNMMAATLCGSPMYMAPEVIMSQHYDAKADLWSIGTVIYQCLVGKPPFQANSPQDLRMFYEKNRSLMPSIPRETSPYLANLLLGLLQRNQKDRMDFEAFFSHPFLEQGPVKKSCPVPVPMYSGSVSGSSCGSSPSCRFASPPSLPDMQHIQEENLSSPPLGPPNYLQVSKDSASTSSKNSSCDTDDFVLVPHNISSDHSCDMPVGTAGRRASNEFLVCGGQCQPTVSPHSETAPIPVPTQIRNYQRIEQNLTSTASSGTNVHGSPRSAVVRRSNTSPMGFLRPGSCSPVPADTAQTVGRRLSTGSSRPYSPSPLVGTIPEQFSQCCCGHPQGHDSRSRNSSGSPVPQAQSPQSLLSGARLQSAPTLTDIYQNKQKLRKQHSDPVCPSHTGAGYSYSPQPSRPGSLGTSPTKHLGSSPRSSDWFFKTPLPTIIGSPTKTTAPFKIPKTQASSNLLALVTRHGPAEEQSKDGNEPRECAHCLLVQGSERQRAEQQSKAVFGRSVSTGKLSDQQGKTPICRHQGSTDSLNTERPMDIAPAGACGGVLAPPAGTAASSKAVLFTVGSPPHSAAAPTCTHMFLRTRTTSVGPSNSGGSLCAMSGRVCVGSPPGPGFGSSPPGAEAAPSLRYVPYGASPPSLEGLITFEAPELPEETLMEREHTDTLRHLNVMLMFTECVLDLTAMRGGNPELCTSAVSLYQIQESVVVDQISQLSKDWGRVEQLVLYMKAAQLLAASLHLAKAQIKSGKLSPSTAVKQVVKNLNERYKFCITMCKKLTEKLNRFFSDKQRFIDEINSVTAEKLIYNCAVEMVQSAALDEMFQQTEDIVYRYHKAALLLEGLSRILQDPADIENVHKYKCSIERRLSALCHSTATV

T4 sequence (Q08881 whole entry): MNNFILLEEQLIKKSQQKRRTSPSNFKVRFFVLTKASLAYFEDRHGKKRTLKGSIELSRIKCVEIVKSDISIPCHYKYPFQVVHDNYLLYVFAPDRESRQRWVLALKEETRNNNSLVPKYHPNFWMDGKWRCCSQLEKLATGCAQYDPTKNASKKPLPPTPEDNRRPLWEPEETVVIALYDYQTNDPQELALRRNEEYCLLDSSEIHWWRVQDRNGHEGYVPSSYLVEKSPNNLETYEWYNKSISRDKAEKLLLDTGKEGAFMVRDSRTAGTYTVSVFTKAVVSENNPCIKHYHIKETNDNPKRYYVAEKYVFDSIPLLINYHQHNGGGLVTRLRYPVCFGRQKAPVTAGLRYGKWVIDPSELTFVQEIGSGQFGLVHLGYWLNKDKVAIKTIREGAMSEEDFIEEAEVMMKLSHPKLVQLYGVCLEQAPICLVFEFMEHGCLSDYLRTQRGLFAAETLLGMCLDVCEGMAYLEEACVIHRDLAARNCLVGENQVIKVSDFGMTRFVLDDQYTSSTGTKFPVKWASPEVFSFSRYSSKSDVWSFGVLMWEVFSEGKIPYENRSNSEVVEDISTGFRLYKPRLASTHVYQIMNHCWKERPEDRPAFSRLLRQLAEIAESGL
T3 sequence (Q13882 whole entry): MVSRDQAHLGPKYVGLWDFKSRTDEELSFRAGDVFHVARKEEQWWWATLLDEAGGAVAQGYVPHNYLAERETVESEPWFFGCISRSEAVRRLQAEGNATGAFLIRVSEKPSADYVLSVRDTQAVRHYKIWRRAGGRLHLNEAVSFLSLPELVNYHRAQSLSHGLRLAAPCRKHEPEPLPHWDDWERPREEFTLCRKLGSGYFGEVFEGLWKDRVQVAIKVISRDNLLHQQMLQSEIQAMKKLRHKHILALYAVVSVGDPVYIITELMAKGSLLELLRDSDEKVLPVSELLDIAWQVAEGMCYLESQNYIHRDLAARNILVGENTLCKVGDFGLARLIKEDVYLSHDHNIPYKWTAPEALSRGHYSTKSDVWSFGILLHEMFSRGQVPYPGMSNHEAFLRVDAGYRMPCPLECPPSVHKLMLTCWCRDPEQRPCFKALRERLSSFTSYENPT
T5 sequence (Q15139 whole entry): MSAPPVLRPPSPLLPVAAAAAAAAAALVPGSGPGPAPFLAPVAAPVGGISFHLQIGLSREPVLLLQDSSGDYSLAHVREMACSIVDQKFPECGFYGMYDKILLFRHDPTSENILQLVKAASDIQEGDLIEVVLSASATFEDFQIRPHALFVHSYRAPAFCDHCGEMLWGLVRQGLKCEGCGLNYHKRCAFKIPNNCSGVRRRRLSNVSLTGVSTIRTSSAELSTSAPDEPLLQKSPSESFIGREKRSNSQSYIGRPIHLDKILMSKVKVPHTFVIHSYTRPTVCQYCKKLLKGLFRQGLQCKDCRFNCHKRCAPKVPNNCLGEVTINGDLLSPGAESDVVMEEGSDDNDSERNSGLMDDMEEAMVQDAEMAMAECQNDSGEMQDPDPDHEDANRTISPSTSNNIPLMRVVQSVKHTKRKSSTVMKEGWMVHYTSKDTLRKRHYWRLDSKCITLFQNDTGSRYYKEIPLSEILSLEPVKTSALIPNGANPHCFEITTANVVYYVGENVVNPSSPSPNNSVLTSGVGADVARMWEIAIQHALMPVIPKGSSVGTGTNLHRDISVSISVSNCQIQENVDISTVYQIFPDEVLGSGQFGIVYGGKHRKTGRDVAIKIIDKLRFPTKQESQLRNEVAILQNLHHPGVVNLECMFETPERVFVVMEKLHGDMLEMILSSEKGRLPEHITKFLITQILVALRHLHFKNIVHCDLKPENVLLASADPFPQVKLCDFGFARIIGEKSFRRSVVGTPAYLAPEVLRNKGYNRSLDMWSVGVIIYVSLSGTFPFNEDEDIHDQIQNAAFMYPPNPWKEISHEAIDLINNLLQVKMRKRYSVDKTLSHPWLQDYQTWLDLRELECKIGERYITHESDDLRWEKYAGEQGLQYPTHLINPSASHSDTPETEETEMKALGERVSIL
T1 sequence (P00519 whole entry F317L): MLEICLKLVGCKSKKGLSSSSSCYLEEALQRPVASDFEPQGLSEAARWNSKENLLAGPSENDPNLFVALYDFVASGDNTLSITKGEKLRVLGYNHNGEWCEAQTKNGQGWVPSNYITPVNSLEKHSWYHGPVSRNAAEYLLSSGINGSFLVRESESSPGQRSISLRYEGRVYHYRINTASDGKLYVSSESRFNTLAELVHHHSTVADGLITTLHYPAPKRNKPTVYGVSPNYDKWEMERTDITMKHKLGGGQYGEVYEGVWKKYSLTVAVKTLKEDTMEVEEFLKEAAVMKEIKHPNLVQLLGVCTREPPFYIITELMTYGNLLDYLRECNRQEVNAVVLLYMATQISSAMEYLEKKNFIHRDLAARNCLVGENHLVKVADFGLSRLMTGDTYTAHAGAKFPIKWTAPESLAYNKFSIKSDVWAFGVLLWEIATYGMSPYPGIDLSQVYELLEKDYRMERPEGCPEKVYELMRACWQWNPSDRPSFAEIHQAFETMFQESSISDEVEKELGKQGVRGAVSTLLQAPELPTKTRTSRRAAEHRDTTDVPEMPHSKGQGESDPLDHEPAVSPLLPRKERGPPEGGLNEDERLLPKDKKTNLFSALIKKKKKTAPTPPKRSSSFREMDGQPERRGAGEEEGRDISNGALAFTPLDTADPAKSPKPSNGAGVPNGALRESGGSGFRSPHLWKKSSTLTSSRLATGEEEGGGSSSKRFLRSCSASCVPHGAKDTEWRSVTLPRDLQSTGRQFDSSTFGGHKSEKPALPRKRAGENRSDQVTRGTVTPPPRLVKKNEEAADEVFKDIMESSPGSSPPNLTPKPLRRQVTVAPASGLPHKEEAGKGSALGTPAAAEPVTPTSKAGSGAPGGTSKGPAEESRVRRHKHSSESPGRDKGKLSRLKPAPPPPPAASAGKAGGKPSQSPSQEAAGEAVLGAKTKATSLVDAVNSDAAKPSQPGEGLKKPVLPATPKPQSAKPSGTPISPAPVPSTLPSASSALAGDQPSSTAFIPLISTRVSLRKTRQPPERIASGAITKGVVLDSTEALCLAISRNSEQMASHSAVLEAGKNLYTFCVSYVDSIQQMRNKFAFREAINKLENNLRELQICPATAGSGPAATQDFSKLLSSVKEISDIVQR
T10 sequence (P42681 whole entry): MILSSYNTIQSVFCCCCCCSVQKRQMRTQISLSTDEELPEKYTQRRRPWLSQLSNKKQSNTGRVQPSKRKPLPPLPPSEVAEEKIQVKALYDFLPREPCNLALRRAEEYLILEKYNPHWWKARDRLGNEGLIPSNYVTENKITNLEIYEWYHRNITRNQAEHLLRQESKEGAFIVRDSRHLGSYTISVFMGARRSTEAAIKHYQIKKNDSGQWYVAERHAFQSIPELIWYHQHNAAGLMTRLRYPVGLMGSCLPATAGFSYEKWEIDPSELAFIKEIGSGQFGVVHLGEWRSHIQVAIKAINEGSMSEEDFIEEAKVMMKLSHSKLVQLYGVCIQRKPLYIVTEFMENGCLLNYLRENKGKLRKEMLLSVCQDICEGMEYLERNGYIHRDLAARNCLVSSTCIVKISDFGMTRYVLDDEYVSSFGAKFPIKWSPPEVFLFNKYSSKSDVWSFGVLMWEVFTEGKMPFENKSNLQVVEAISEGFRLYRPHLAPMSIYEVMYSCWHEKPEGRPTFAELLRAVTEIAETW
T6 sequence (P0C264 whole entry): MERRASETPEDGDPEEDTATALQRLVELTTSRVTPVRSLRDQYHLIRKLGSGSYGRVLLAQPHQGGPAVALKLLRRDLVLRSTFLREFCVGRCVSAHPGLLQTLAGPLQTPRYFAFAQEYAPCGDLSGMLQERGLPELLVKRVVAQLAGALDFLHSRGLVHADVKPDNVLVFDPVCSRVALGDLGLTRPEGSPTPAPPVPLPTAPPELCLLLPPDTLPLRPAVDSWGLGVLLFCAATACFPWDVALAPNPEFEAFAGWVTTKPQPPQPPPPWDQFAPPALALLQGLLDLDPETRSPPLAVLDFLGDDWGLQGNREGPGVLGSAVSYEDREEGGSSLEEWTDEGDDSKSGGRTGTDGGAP

CN1CCC(CNc2ccc3ncc(C(=O)Nc4cccc(OC(F)(F)F)c4)n3n2)CC1 [Cpd 2]
EC50 (PDAC4 3D spheres): 7.17 µM | Acridine Orange staining (LMP), fluorescence microscopy (re-plated PDAC2 spheres; 5 µM, 2 h): greatly reduced lysosomal staining in the far-red channel | AO mean far-red fluorescence intensity (MFI), flow cytometry (re-plated PDAC2 spheres; 1.25, 2.5 or 5 µM, 6 h and 24 h): decreasing overall AO mean far-red fluorescence intensity | remaining binding at 1 µM (ABL1(F317L)-P): 100% | remaining binding at 1 µM (FLT3(D835V)): 0.45% | remaining binding at 1 µM (BRK): 99% | remaining binding at 1 µM (ITK): 95% | remaining binding at 1 µM (PRKD1): 98% | remaining binding at 1 µM (SgK110): 72% | remaining binding at 1 µM (MEK6): 98% | remaining binding at 1 µM (STK39): 99% | remaining binding at 1 µM (TRPM6): 100% | remaining binding at 1 µM (TXK): 100% | remaining binding at 1 µM (ULK2): 100%
